Measured values taken from the NIST ThermoML archive (doi:10.1021/je5004669).

Details: 101.33 kPa, Liquid; for mass density: Vibrating tube method; for viscosity: Capillary tube (Ostwald / Ubbelohde) method

CCCN.CCCN.O=S(=O)([N-]S(=O)(=O)C(F)(F)F)C(F)(F)F.[Ag+]
Details | mass density [kg/m3] | viscosity [mPa·s]
293 K | 1637.5 | –
293.2 K | – | 46.09
298 K | 1632 | –
298.1 K | – | 36
303 K | 1626.3 | –
303.2 K | – | 31.07
308.2 K | – | 27.03
313 K | 1614.7 | –
313.2 K | – | 25.28
318.3 K | – | 21.28
323 K | 1603.5 | –
323.2 K | – | 18.21
328.2 K | – | 15.85
333 K | 1592.3 | –
333.2 K | – | 14.84
